Our source for the inhibition values is patent publication US8106055B2, “Substituted amide compounds” (Gruenenthal GmbH, priority 2007, dated 2012).

One test addresses T1, human μ opiate receptor (Homo sapiens, UniProt P35372).
T1 construct: purchased PerkinElmer Life Sciences, Zaventem, Belgium RB-HOM; host or cells: CHO-K1 cells (membrane preparation)
Description: Affinity for the human μ opiate receptor ([3H]-naloxone displacement, CHO-K1 receptor membrane preparation, SPA). The test is classed as binding. The note with it: 1.5 h, Table 3, to be read in the same way as Table 1; test concentration 1 μM; read-out: μ. The procedure, abridged: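 CHO-K1 membranes expressing human μ receptor incubated 90 min at room temperature with 1 nmol/l [3H]-naloxone and WGA-SPA beads in 50 mmol/l Tris-HCl, 0.06% BSA; 100 μmol/l naloxone defines non-specific binding. Values are % inhibition of specific binding at 1 μM; IC50 converted to Ki by Cheng-Prusoff.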

Test [1] deals with T2, human bradykinin 1 receptor (B1R) (Homo sapiens, UniProt P46663).
T2 construct: expressed in transfected cells; host or cells: CHO K1 cells
T2 sequence (P46663 1-353): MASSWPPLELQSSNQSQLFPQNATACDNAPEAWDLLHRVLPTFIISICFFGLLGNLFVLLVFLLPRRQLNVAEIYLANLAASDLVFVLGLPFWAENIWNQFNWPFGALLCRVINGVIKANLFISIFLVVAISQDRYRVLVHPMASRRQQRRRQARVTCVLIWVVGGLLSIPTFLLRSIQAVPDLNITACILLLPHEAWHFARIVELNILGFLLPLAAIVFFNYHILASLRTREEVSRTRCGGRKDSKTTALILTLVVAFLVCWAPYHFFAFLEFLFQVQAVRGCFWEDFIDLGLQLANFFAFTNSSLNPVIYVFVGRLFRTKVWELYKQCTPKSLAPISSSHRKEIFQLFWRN
Description: Functional investigation on the human bradykinin 1 receptor (B1R), Ca2+ FLIPR assay in CHO K1 hB1R cells. The class given is cell-based. The conditions noted are these: CHO-K1, B1R antagonism human; test substance 10 μM; Ca2+ FLIPR, CHO K1 hB1R cells; read-out: B1R Ant. h [10 μM] % Inhibition. In outline:
(§1)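 Stably transfected CHO K1 cells loaded with Fluo-4; FLIPR Ca2+ fluorescence peak (ex 488/em 540 nm). Compound added first (agonism vs Lys-Des-Arg9-bradykinin ≥50 nM human, Des-Arg9-bradykinin 10 μM rat), then after 10-20 min agonist at EC80; antagonism as % inhibition, IC50 from concentration series, n=2-3, N≥2.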

For test [2], the target named is T3, bradykinin 1 receptor (B1R) of the rat (Rattus norvegicus, UniProt P97583).
T3 construct: expressed in transfected cells; host or cells: CHO K1 cells
T3 sequence (P97583 1-337): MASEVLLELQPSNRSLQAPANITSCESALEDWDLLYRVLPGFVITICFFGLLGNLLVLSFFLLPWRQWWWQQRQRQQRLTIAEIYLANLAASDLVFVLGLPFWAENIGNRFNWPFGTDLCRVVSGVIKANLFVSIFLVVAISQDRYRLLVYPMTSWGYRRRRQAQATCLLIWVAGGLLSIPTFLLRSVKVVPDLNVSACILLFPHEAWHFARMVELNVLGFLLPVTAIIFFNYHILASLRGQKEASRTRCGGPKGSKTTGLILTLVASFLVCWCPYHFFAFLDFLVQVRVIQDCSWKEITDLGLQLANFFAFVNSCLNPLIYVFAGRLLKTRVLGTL
Nature of the test: Functional investigation on the rat bradykinin 1 receptor (B1R), Ca2+ FLIPR assay in CHO K1 rB1R cells. The note with it: CHO-K1, B1R antagonism rat; test substance 10 μM; Ca2+ FLIPR, CHO K1 rB1R cells; read-out: B1R Ant. r [10 μM] % Inhibition. The class given is cell-based. The procedure, abridged:
as §1

T1 sequence (P35372 whole entry): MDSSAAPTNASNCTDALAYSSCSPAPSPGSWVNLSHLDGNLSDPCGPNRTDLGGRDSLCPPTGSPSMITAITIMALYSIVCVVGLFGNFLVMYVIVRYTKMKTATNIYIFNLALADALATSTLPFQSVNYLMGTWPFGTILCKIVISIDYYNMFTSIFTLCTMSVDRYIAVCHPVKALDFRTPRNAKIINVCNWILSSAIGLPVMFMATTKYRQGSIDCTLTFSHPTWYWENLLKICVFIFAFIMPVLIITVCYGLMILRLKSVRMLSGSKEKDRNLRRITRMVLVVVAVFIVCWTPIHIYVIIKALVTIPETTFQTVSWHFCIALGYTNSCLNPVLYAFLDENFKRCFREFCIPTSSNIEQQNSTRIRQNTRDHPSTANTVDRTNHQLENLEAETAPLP

For the compound `CN1CCN(C(c2ccccc2)C2CCC(NC(=O)COCC3CCCN(S(=O)(=O)c4c(Cl)cc(Cl)cc4Cl)C3)CC2)CC1` (stereo not drawn) [Example 742, N-(4-((4-methylpiperazin-1-yl)(phenyl)methyl)cyclohexyl)-2-((1-(2,4,6-trichlorophenylsulfonyl)piperidin-3-yl)methoxy)acetamide], the inhibition at 1 µM on human μ opiate receptor turned out to be 29%. The inhibition at 10 µM in test [1] stood at 36%; in test [2], 53%.

With `O=C(COC1CCN(S(=O)(=O)c2c(Cl)cc(Cl)cc2Cl)C1)NCC1CCC(C(c2ccccc2)N2CCOCC2)CC1` (stereo not drawn) [Example 743, N-((4-(morpholino(phenyl)methyl)cyclohexyl)methyl)-2-(1-(2,4,6-trichlorophenylsulfonyl)pyrrolidin-3-yloxy)acetamide], at human μ opiate receptor, the inhibition at 1 µM amounted to 8%. The inhibition at 10 µM was -3% in test [1] and 10% in test [2].

Turning to `COc1cc(C)c(S(=O)(=O)N2CCCC(COCC(=O)NCC3CCC(C(c4ccccc4)N4CCOCC4)CC3)C2)c(C)c1` (stereo not drawn) [Example 744, 2-((1-(4-methoxy-2,6-dimethylphenylsulfonyl)piperidin-3-yl)methoxy)-N-((4-(morpholino(phenyl)methyl)cyclohexyl)methyl)acetamide], on human μ opiate receptor, the inhibition at 1 µM turned out to be 13%. The inhibition at 10 µM in test [1] came to 18%; in test [2], 40%.

Take `O=C(COC1CCN(S(=O)(=O)c2c(Cl)cc(Cl)cc2Cl)C1)NCC1CCC(C(CCc2ccccc2)N2CCOCC2)CC1` (stereo not drawn) [Example 745, N-((4-(1-morpholino-3-phenylpropyl)cyclohexyl)methyl)-2-(1-(2,4,6-trichlorophenylsulfonyl)pyrrolidin-3-yloxy)acetamide]: the inhibition at 1 µM on human μ opiate receptor worked out at 8%. Moreover, the results for the inhibition at 10 µM in test [1] and in test [2] were 45% and 44%, respectively.

Take `CN(CCOCC(=O)NCC1CCC(C(CCc2ccccc2)N2CCCC2)CC1)S(=O)(=O)c1c(Cl)cc(C(F)(F)F)cc1Cl` (stereo not drawn) [Example 746, 2-(2-(2,6-dichloro-N-methyl-4-(trifluoromethyl)phenylsulfonamido)ethoxy)-N-((4-(3-phenyl-1-(pyrrolidin-1-yl)propyl)cyclohexyl)methyl)acetamide]: the inhibition at 1 µM at human μ opiate receptor is 8%. Also, the results for the inhibition at 10 µM in test [1] and in test [2] were 98% and 51%, respectively.

In the case of `O=C(COC1CCCN(S(=O)(=O)c2c(Cl)cc(Cl)cc2Cl)C1)NCC1CCC(C(CCc2ccccc2)N2CCOCC2)CC1` (stereo not drawn) [Example 747, N-((4-(1-morpholino-3-phenylpropyl)cyclohexyl)methyl)-2-(1-(2,4,6-trichlorophenylsulfonyl)piperidin-3-yloxy)acetamide], the inhibition at 1 µM at human μ opiate receptor turned out to be 23%. The inhibition at 10 µM in test [1] came out at 24%; in test [2], 32%.

As for `COc1cc(C)c(S(=O)(=O)N2CCCC(OCC(=O)NCC3CCC(C(CCc4ccccc4)N4CCOCC4)CC3)C2)c(C)c1` (stereo not drawn) [Example 748, 2-(1-(4-methoxy-2,6-dimethylphenylsulfonyl)piperidin-3-yloxy)-N-((4-(1-morpholino-3-phenylpropyl)cyclohexyl)methyl)acetamide], the inhibition at 1 µM at human μ opiate receptor came to 20%. In addition, the inhibition at 10 µM in test [1] stood at 92%; in test [2], 78%.

On to `COc1cc(C)c(S(=O)(=O)N2CCCC2COCC(=O)NCC2CCC(C(CCc3ccccc3)N3CCOCC3)CC2)c(C)c1` (stereo not drawn) [Example 749, 2-((1-(4-methoxy-2,6-dimethylphenylsulfonyl)pyrrolidin-2-yl)methoxy)-N-((4-(1-morpholino-3-phenylpropyl)cyclohexyl)methyl)acetamide], for which the inhibition at 1 µM on human μ opiate receptor was found to be 12%. In addition, the figures for the inhibition at 10 µM in test [1] and in test [2] were 103% and 109%, respectively.

Take `COc1cc(C)c(S(=O)(=O)N2CCCC2COCC(=O)NCC2CCC(C(CCc3ccccc3)N3CCCC3)CC2)c(C)c1` (stereo not drawn) [Example 750, 2-((1-(4-methoxy-2,6-dimethylphenylsulfonyl)pyrrolidin-2-yl)methoxy)-N-((4-(3-phenyl-1-(pyrrolidin-1-yl)propyl)cyclohexyl)methyl)acetamide]: on human μ opiate receptor, the inhibition at 1 µM was 52%. Also, the inhibition at 10 µM stood at 101% in test [1] and 94% in test [2].

`O=C(COCC1CCCN1S(=O)(=O)c1c(Cl)cc(Cl)cc1Cl)NCC1CCC(C(CCc2ccccc2)N2CCOCC2)CC1` (stereo not drawn) [Example 751, N-((4-(1-morpholino-3-phenylpropyl)cyclohexyl)methyl)-2-((1-(2,4,6-trichlorophenylsulfonyl)pyrrolidin-2-yl)methoxy)acetamide]: at human μ opiate receptor, the inhibition at 1 µM was found to be 32%. In addition, the inhibition at 10 µM in test [1] stood at 45%; in test [2], 73%.

Regarding `O=C(COCC1CCCN1S(=O)(=O)c1c(Cl)cc(Cl)cc1Cl)NCC1CCC(C(CCc2ccccc2)N2CCCC2)CC1` (stereo not drawn) [Example 752, N-((4-(3-phenyl-1-(pyrrolidin-1-yl)propyl)cyclohexyl)methyl)-2-((1-(2,4,6-trichlorophenylsulfonyl)pyrrolidin-2-yl)methoxy)acetamide], at human μ opiate receptor, the inhibition at 1 µM was determined as 82%. The inhibition at 10 µM in test [1] is 103%; in test [2], 104%.

Regarding `COc1cc(C)c(S(=O)(=O)N2CCCCC2COCC(=O)NCC2CCC(C(CCc3ccccc3)N3CCOCC3)CC2)c(C)c1` (stereo not drawn) [Example 753, 2-((1-(4-methoxy-2,6-dimethylphenylsulfonyl)piperidin-2-yl)methoxy)-N-((4-(1-morpholino-3-phenylpropyl)cyclohexyl)methyl)acetamide], at human μ opiate receptor, the inhibition at 1 µM amounted to 17%. In addition, the inhibition at 10 µM was determined as 104% in test [1] and 103% in test [2].

As for `O=C(COCC1CCCCN1S(=O)(=O)c1c(Cl)cc(Cl)cc1Cl)NCC1CCC(C(CCc2ccccc2)N2CCOCC2)CC1` (stereo not drawn) [Example 754, N-((4-(1-morpholino-3-phenylpropyl)cyclohexyl)methyl)-2-((1-(2,4,6-trichlorophenylsulfonyl)piperidin-2-yl)methoxy)acetamide], at human μ opiate receptor, the inhibition at 1 µM was 2%. The inhibition at 10 µM turned out to be 47% in test [1] and 76% in test [2].

`O=C(COCC1CCCCN1S(=O)(=O)c1c(Cl)cc(Cl)cc1Cl)NCC1CCC(C(CCc2ccccc2)N2CCCC2)CC1` (stereo not drawn) [Example 755, N-((4-(3-phenyl-1-(pyrrolidin-1-yl)propyl)cyclohexyl)methyl)-2-((1-(2,4,6-trichlorophenylsulfonyl)piperidin-2-yl)methoxy)acetamide]: the inhibition at 1 µM at human μ opiate receptor amounted to 62%. In addition, the results for the inhibition at 10 µM in test [1] and in test [2] were 103% and 102%, respectively.

On to `COc1cc(C)c(S(=O)(=O)N2CCCC(COCC(=O)NCC3CCC(C(CCc4ccccc4)N4CCOCC4)CC3)C2)c(C)c1` (stereo not drawn) [Example 756, 2-((1-(4-methoxy-2,6-dimethylphenylsulfonyl)piperidin-3-yl)methoxy)-N-((4-(1-morpholino-3-phenylpropyl)cyclohexyl)methyl)acetamide], for which the inhibition at 1 µM on human μ opiate receptor came out at 5%. The inhibition at 10 µM in test [1] amounted to 64%; in test [2] it was 43%.

In the case of `COc1cc(C)c(S(=O)(=O)N2CCCC(COCC(=O)NCC3CCC(C(CCc4ccccc4)N4CCCC4)CC3)C2)c(C)c1` (stereo not drawn) [Example 757, 2-((1-(4-methoxy-2,6-dimethylphenylsulfonyl)piperidin-3-yl)methoxy)-N-((4-(3-phenyl-1-(pyrrolidin-1-yl)propyl)cyclohexyl)methyl)acetamide], the inhibition at 1 µM on human μ opiate receptor came out at 32%. The values for the inhibition at 10 µM in test [1] and in test [2] were 103% and 100%, respectively.

As to `O=C(COCC1CCCN(S(=O)(=O)c2c(Cl)cc(Cl)cc2Cl)C1)NCC1CCC(C(CCc2ccccc2)N2CCOCC2)CC1` (stereo not drawn) [Example 758, N-((4-(1-morpholino-3-phenylpropyl)cyclohexyl)methyl)-2-((1-(2,4,6-trichlorophenylsulfonyl)piperidin-3-yl)methoxy)acetamide], the inhibition at 1 µM at human μ opiate receptor worked out at 25%. Besides, the inhibition at 10 µM came to 41% in test [1] and 107% in test [2].
